Several values for one entry are separate records, joined by “and”; a condition that tells them apart may be missing. Equal entries are not always repeated.
Columns and labels:
[1] = target: succinate-ubiquinone redutase (SDH) of mitochondria from the 3884 strain (SDHB P225H substitution) (Botrytis cinerea, UniProt A0A384J5E4+D2IH01+D2IH03, P225H); test: SDH activity of extracted mitochondria by DCPIP reduction at 595 nm, P225H mutant; type: biochemical; parameters: key to Classification: Classification A pI50 increase or stable compared to WT; Classification B pI50 decrease inferior or equal to 0.6 compared to WT; Classification C pI50 decrease superior to 0.6 compared to WT; details: for IC50 / PI50 P225H3884: mitochondria of 3884 strain, 20 min preincubation, -log 10 of concentration inhibiting DCPIP reduction by 50%; for IC50: read-out: PI50 P225H3884 (converted); for Classification: pI50 on P225H 3884 mitochondria compared to WT
Sequence of succinate-ubiquinone redutase (SDH) of mitochondria from the 3884 strain (SDHB P225H substitution) (A0A384J5E4 30-300, stated change not applied): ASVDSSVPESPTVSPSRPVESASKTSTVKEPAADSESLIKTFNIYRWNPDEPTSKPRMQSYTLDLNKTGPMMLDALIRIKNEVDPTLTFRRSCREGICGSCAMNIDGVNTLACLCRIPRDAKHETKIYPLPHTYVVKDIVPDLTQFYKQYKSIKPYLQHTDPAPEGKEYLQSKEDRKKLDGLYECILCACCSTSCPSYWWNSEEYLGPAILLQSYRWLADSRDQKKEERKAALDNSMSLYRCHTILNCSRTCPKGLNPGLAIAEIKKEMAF
Sequence of succinate-ubiquinone redutase (SDH) of mitochondria from the 3884 strain (SDHB P225H substitution) (D2IH03 46-189, stated change not applied): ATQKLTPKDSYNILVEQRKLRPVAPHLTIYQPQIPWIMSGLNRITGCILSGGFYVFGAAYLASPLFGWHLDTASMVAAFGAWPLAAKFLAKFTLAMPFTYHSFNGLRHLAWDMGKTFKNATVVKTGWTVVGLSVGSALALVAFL
Sequence of succinate-ubiquinone redutase (SDH) of mitochondria from the 3884 strain (SDHB P225H substitution) (D2IH01 64-192, stated change not applied): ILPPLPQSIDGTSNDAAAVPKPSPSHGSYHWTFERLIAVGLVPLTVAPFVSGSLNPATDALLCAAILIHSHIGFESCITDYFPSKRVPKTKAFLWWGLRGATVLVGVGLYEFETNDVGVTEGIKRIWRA
Sequence of succinate-ubiquinone redutase (SDH) of mitochondria from the 3884 strain (SDHB P225H substitution) (A0A384K456 34-647 partner): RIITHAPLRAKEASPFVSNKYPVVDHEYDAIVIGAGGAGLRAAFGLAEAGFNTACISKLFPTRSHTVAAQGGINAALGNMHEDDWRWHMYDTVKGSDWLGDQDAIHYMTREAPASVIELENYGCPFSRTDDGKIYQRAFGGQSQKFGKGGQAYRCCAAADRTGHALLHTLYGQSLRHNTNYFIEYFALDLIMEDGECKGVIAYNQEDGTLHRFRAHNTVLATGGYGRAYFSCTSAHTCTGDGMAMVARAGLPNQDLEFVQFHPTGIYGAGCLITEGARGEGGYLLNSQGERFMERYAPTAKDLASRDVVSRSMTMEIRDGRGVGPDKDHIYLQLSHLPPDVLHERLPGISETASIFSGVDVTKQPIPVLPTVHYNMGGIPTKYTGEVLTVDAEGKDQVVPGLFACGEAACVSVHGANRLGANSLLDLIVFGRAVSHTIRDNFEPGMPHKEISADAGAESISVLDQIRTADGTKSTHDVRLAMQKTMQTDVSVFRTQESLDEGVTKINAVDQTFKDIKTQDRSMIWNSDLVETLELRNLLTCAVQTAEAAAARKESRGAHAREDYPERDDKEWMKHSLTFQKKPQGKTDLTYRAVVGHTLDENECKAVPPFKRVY
Description: (§1) Compounds activity was investigated at the level of the mitochondrial target and compared to other SDH inhibitors.
(§2) Mitochondria were extracted according to Cramer et al. (1983) Analytical biochemistry, 128, 384-392 and the mycelium prepared according to Fritz et al., (1993). Agronomie 13, 225-230 except that spore's incubation was pursued for 48 hours. SDH activity was measured by following DCPIP (2,6-dichlorphenol-indophenol) reduction at 595 nm overtime. To test SDH inhibitors, mitochondria were incubated with test compounds for 20 min prior the initiation of the reaction.

[2] = target: succinate-ubiquinone redutase (SDH) of mitochondria from Bo47 WT strain (Botrytis cinerea, UniProt A0A384J5E4+D2IH01+D2IH03); test: SDH activity of extracted mitochondria by DCPIP reduction at 595 nm, wild type; type: biochemical; details: 20 min preincubation, -log 10 of concentration inhibiting DCPIP reduction by 50%; for IC50: PI50 Bo47 (Wild type)
Sequence of succinate-ubiquinone redutase (SDH) of mitochondria from Bo47 WT strain (A0A384K456 entry or part of it): as the sequence (A0A384K456 34-647 partner) above
Sequence of succinate-ubiquinone redutase (SDH) of mitochondria from Bo47 WT strain (D2IH03 entry or part of it): as the sequence (D2IH03 46-189, stated change not applied) above
Sequence of succinate-ubiquinone redutase (SDH) of mitochondria from Bo47 WT strain (A0A384J5E4 entry or part of it): as the sequence (A0A384J5E4 30-300, stated change not applied) above
Sequence of succinate-ubiquinone redutase (SDH) of mitochondria from Bo47 WT strain (D2IH01 entry or part of it): as the sequence (D2IH01 64-192, stated change not applied) above
Description: as §1, §2

[3] = test system: Botrytis cinerea boscalid-resistant strains with SDHB_P225H, F substitutions; test: Sensitivity assay in microtiter plate, resistance factor of boscalid-resistant field strains versus Bo47 WT; type: cell-based
Description: Four to five strains with SDHB_P225H, F substitutions were retained for subsequent sensitivity assays in microtiter plate. IC50 of test compounds were determined and resistance factors (RF) calculated as the ratio of IC50 mutant/IC50 WT (Bo47). […] Strains giving a RF below 10 were considered sensitive, moderately resistant when RF was comprised between 10 and 50, resistant above 50.

[4] = mutation P225F, BOTRCI strain 08BC1554
[5] = mutation P225F, BOTRCI strain 08BC1557
[6] = mutation P225F, BOTRCI strain 08BC1558
[7] = mutation P225F, BOTRCI strain 09BC2615
[8] = mutation P225H, BOTRCI strain 09BC2640
[9] = mutation P225H, BOTRCI strain 09BC2648
[10] = mutation P225H, BOTRCI strain 09BC2649
[11] = mutation P225H, BOTRCI strain 09BC2652

SMILES | IC50 [1] [nM] | Classification [1] | IC50 [2] | further results
Cn1nc(C(F)F)c(C(=O)N(Cc2cc(Cl)ccc2C(F)(F)F)C2CC2)c1F [Compound A15, N-[5-chloro-2-(trifluoromethyl)benzyl]-N-cyclopropyl-3-(difluoromethyl)-5-fluoro-1-methyl-1H-pyrazole-4-carboxamide] | 6.31 | A | 15.8 nM | 
Cn1nc(C(F)F)c(C(=O)N(Cc2cc(F)ccc2C2CCCC2)C2CC2)c1F [Compound A9, N-(2-cyclopentyl-5-fluorobenzyl)-N-cyclopropyl-3-(difluoromethyl)-5-fluoro-1-methyl-1H-pyrazole-4-carboxamide] | 3.16 | A | 5.01 nM | 
Cn1nc(C(F)F)c(C(=O)N(Cc2cc(F)ccc2C2CC2)C2CC2)c1F [Compound A8, N-cyclopropyl-N-(2-cyclopropyl-5-fluorobenzyl)-3-(difluoromethyl)-5-fluoro-1-methyl-1H-pyrazole-4-carboxamide] | 3.16 | A | 7.94 nM | 
Cn1nc(C(F)F)c(C(=O)N(Cc2c(Cl)cccc2C(F)(F)F)C2CC2)c1F [Compound A17, N-[2-chloro-6-(trifluoromethyl)benzyl]-N-cyclopropyl-3-(difluoromethyl)-5-fluoro-1-methyl-1H-pyrazole-4-carboxamide] | 3.16 | A | 10 nM | 
O=C(Nc1ccccc1-c1ccc(Cl)cc1)c1cccnc1Cl [Boscalid, reference compound] | 5010 | C (Classification C pI50 decrease superior to 0.6 compared to WT) | 39.8 nM | 
CC(C)c1ccccc1CN(C(=O)c1c(C(F)F)nn(C)c1F)C1CC1 [Compound A1, N-cyclopropyl-3-(difluoromethyl)-5-fluoro-N-(2-isopropylbenzyl)-1-methyl-1H-pyrazole-4-carboxamide] | 3.16 | A | 12.6 nM | 
CCc1ccc(F)cc1CN(C(=O)c1c(C(F)F)nn(C)c1F)C1CC1 [Compound A6, N-cyclopropyl-3-(difluoromethyl)-N-(2-ethyl-5-fluorobenzyl)-5-fluoro-1-methyl-1H-pyrazole-4-carboxamide] | 2.51 | A | 7.94 nM | 
Cn1nc(C(F)F)c(C(=O)N(Cc2ccccc2[Si](C)(C)C)C2CC2)c1F [Compound A22, N-cyclopropyl-3-(difluoromethyl)-5-fluoro-1-methyl-N-[2-(trimethylsilyl)benzyl]-1H-pyrazole-4-carboxamide] | 3.16 | A | 3.98 nM | 
Cn1nc(C(F)F)c(C(=O)N(Cc2ccccc2C(C)(C)C)C2CC2)c1F [Compound A3, N-(2-tert-butylbenzyl)-N-cyclopropyl-3-(difluoromethyl)-5-fluoro-1-methyl-1H-pyrazole-4-carboxamide] |  |  |  | resistance factor (RF), ratio of IC50 mutant/IC50 WT (Bo47) [3, 4]: 1.8; resistance factor (RF), ratio of IC50 mutant/IC50 WT (Bo47) [3, 5]: 1.2; resistance factor (RF), ratio of IC50 mutant/IC50 WT (Bo47) [3, 6]: 2.2; resistance factor (RF), ratio of IC50 mutant/IC50 WT (Bo47) [3, 7]: 1.0; resistance factor (RF), ratio of IC50 mutant/IC50 WT (Bo47) [3, 8]: 0.9; resistance factor (RF), ratio of IC50 mutant/IC50 WT (Bo47) [3, 9]: 1.0; resistance factor (RF), ratio of IC50 mutant/IC50 WT (Bo47) [3, 10]: 1.7; resistance factor (RF), ratio of IC50 mutant/IC50 WT (Bo47) [3, 11]: 1.1
Cc1ccc(C(F)(F)F)c(CN(C(=O)c2c(C(F)F)nn(C)c2F)C2CC2)c1 [Compound A16, N-cyclopropyl-3-(difluoromethyl)-5-fluoro-1-methyl-N-[5-methyl-2-(trifluoromethyl)benzyl]-1H-pyrazole-4-carboxamide] | 5.01 | A | 20 nM | 
CC(C)c1ccc(Cl)cc1CN(C(=O)c1c(C(F)F)nn(C)c1F)C1CC1 [Compound A5, N-(5-chloro-2-isopropylbenzyl)-N-cyclopropyl-3-(difluoromethyl)-5-fluoro-1-methyl-1H-pyrazole-4-carboxamide] | 1.26 | A | 6.31 nM | 
Cc1ccc(C(C)(C)C)c(CN(C(=O)c2c(C(F)F)nn(C)c2F)C2CC2)c1 [Compound A14, N-(2-tert-butyl-5-methylbenzyl)-N-cyclopropyl-3-(difluoromethyl)-5-fluoro-1-methyl-1H-pyrazole-4-carboxamide] | 3.16 | A | 5.01 nM | 
CC(C)c1ccc(F)cc1CN(C(=O)c1c(C(F)F)nn(C)c1F)C1CC1 [Compound A7, N-cyclopropyl-3-(difluoromethyl)-5-fluoro-N-(5-fluoro-2-isopropylbenzyl)-1-methyl-1H-pyrazole-4-carboxamide] | 1.58 | A | 3.98 nM | 
CCc1ccccc1CN(C(=O)c1c(C(F)F)nn(C)c1F)C1CC1 [Compound A21, N-cyclopropyl-3-(difluoromethyl)-N-(2-ethylbenzyl)-5-fluoro-1-methyl-1H-pyrazole-4-carboxamide] | 2.51 | A | 10 nM and 31.6 nM | 
CC(C)c1ccccc1CN(C(=S)c1c(C(F)F)nn(C)c1F)C1CC1 [Compound A20, N-cyclopropyl-3-(difluoromethyl)-5-fluoro-N-(2-isopropylbenzyl)-1-methyl-1H-pyrazole-4-carbothioamide] | 31.6 | A | 631 nM | 
CC(C)c1cccc(F)c1CN(C(=O)c1c(C(F)F)nn(C)c1F)C1CC1 [Compound A10, N-cyclopropyl-3-(difluoromethyl)-5-fluoro-N-(2-fluoro-6-isopropylbenzyl)-1-methyl-1H-pyrazole-4-carboxamide] | 6.31 | B (Classification B pI50 decrease inferior or equal to 0.6 compared to WT) | 3.98 nM | 
Cn1nc(C(F)F)c(C(=O)N(Cc2ccccc2C2CC2)C2CC2)c1F [Compound A2, N-cyclopropyl-N-(2-cyclopropylbenzyl)-3-(difluoromethyl)-5-fluoro-1-methyl-1H-pyrazole-4-carboxamide] | 2.51 | A | 6.31 nM | 
CC(C)C1C2CCC1c1c(NC(=O)c3cn(C)nc3C(F)F)cccc12 (stereo not shown) [Isopyrazam] |  | C (Classification C pI50 decrease superior to 0.6 compared to WT) |  | PI50 P225H3884 [1]: 7.2; resistance factor (RF), ratio of IC50 mutant/IC50 WT (Bo47) [3, 4]: 48.4; resistance factor (RF), ratio of IC50 mutant/IC50 WT (Bo47) [3, 5]: 42.9; resistance factor (RF), ratio of IC50 mutant/IC50 WT (Bo47) [3, 6]: 37.9; resistance factor (RF), ratio of IC50 mutant/IC50 WT (Bo47) [3, 7]: 32.8; resistance factor (RF), ratio of IC50 mutant/IC50 WT (Bo47) [3, 8]: 19.7; resistance factor (RF), ratio of IC50 mutant/IC50 WT (Bo47) [3, 9]: 25.1; resistance factor (RF), ratio of IC50 mutant/IC50 WT (Bo47) [3, 10]: 30.7; sensitivity class of strains by RF ([3]; strains harboring P225H and F substitutions): moderately resistant (moderately resistant when RF was comprised between 10 and 50); PI50 Bo47 (Wild type) [2]: 8 and 8.2
CC(C)CC(C)c1sccc1NC(=O)c1cn(C)nc1C(F)(F)F (stereo not shown) [Penthiopyrad, reference compound] | 501 | C (Classification C pI50 decrease superior to 0.6 compared to WT) | 15.8 nM | 
Cn1cc(C(=O)Nc2ccccc2-c2cc(F)c(F)c(F)c2)c(C(F)F)n1 [Fluxapyroxad] |  | C (Classification C pI50 decrease superior to 0.6 compared to WT) |  | PI50 P225H3884 [1]: 6.2; resistance factor (RF), ratio of IC50 mutant/IC50 WT (Bo47) [3, 4]: 197.2; resistance factor (RF), ratio of IC50 mutant/IC50 WT (Bo47) [3, 5]: 135.6; resistance factor (RF), ratio of IC50 mutant/IC50 WT (Bo47) [3, 6]: 131.5; resistance factor (RF), ratio of IC50 mutant/IC50 WT (Bo47) [3, 7]: 89.1; resistance factor (RF), ratio of IC50 mutant/IC50 WT (Bo47) [3, 8]: 103.0; resistance factor (RF), ratio of IC50 mutant/IC50 WT (Bo47) [3, 9]: 127.9; resistance factor (RF), ratio of IC50 mutant/IC50 WT (Bo47) [3, 10]: 134.2; resistance factor (RF), ratio of IC50 mutant/IC50 WT (Bo47) [3, 11]: 104.7; PI50 Bo47 (Wild type) [2]: 8.0
Cn1nc(C(F)F)c(C(=O)N(Cc2c(C(F)(F)F)ccc(Cl)c2F)C2CC2)c1F [Compound A18, N-[3-chloro-2-fluoro-6-(trifluoromethyl)benzyl]-N-cyclopropyl-3-(difluoromethyl)-5-fluoro-1-methyl-1H-pyrazole-4-carboxamide] | 6.31 | A | 15.8 nM | activity on strains with P225 substitutions compared with wild type strain ([3]; strains with P225 substitutions vs wild type): always more active on strains with P225 substitutions than on wild type strain
Cc1ccc(C(C)C)c(CN(C(=O)c2c(C(F)F)nn(C)c2F)C2CC2)c1 [Compound A12, N-cyclopropyl-3-(difluoromethyl)-5-fluoro-N-(2-isopropyl-5-methylbenzyl)-1-methyl-1H-pyrazole-4-carboxamide] | 1 | A | 3.98 nM | 
